Where a name gives a salt, the structure may show the parent alone.
Columns and labels:
[1] = molecular target: trypsin activity in feces; assay: Fecal Trypsin Activity (Specific Fecal Enzyme Method); format: biochemical; conditions: pooled infant fecal suspension, pH 8.2, 25° C.; read-out: IC50 Specific Fecal Enzyme Methods Trypsin
Text: (§1) The following is a general description of a method for obtaining a sample of feces suitable for use in Fecal Protease Methods. However, one skilled in the art will be able to adapt the method to obtain appropriate samples of feces suitable for use in any of the Specific Fecal Protease Methods listed below (i.e., lipase, urease, and amylase) without undue experimentation.
(§2) Pooled infant feces (at least five different samples) are collected in a manner to keep them free of urine and contamination and mixed with water to obtain a weight by weight (w/w) mixture (e.g., 1:50 w/w). This mixture is then mixed thoroughly to obtain a homogeneous suspension by homogenization or sonication. […] (Also, to ensure complete linearity the final absorbance should never exceed 1.5 OD405 units). If the activity of the pooled infant feces is outside this range, it is not possible to accurately determine IC50 values for putative protease inhibitors. However, the range of enzyme activity may be adjusted by increasing or decreasing the dilution factor accordingly for each enzyme. If this is not possible, a different group of subjects should be used to obtain the sample pool.
To test the efficacy of protease inhibitors against the trypsin activity in feces, inhibitor and trypsin buffer (50 mM TRIS, 20 mM CaCl2, pH 8.2) are added in a cuvette to obtain a final volume of 0.8 mL. To this mixture, 0.1 mL of substrate (3 mM Cbz-arginine-p-nitroanilide) is added to the cuvette. The cuvette is mixed by inversion and incubated at 25° C. for 5 minutes. A volume of 0.1 mL of fecal suspension is added to the cuvette, mixed and the absorbance at 405 nm minus the absorbance at 490 nm are measured over 5 minutes at 25° C. (The absorbance at 490 nm is a correction factor for the background absorbance due to the particulate fecal material, i.e., “interference”). The rate of substrate cleavage in the presence of inhibitor (vi) is the slope of a plot relating the excess absorbance (i.e., the absorbance at 405 nm minus the absorbance at 490 nm) versus time. The same procedure is repeated without the putative inhibitor. The rate of substrate cleavage in the absence of inhibitor (v) is the slope of a plot relating the excess absorbance versus time. The rates, vi and v, and the inhibitor concentration [I] are used to calculate IC50 according to the equation expressed above.

[2] = molecular target: chymotrypsin activity in feces; assay: Fecal Chymotrypsin Activity (Specific Fecal Enzyme Method); format: biochemical; conditions: pooled infant fecal suspension, pH 7.6, 25° C.; read-out: IC50 Specific Fecal Enzyme Methods Chymotryp.
Text: The following is a general description of a method for obtaining a sample of feces suitable for use in Fecal Protease Methods. However, one skilled in the art will be able to adapt the method to obtain appropriate samples of feces suitable for use in any of the Specific Fecal Protease Methods listed below (i.e., lipase, urease, and amylase) without undue experimentation. […] Pooled infant feces (at least five different samples) are collected in a manner to keep them free of urine and contamination and mixed with water to obtain a weight by weight (w/w) mixture (e.g., 1:50 w/w). This mixture is then mixed thoroughly to obtain a homogeneous suspension by homogenization or sonication. […] (Also, to ensure complete linearity the final absorbance should never exceed 1.5 OD405 units). If the activity of the pooled infant feces is outside this range, it is not possible to accurately determine IC50 values for putative protease inhibitors. However, the range of enzyme activity may be adjusted by increasing or decreasing the dilution factor accordingly for each enzyme. If this is not possible, a different group of subjects should be used to obtain the sample pool. […] The cuvette is mixed by inversion and incubated at 25° C. for 5 minutes. […] The rate of substrate cleavage in the presence of inhibitor (vi) is the slope of a plot relating the excess absorbance (i.e., the absorbance at 405 nm minus the absorbance at 490 nm) versus time. The same procedure is repeated without the putative inhibitor. The rate of substrate cleavage in the absence of inhibitor (v) is the slope of a plot relating the excess absorbance versus time. The rates, vi and v, and the inhibitor concentration [I] are used to calculate IC50 according to the equation expressed above.

LAP activity in feces = assay: Fecal LAP Activity (Specific Fecal Enzyme Method); format: biochemical; conditions: pooled infant fecal suspension, pH 7.2, 25° C.; read-out: IC50 Specific Fecal Enzyme Methods LAP
Text: as §1, §2
To test the efficacy of protease inhibitors against LAP activity in feces, inhibitor and LAP buffer (50 mM sodium phosphate, pH 7.2) are added in a cuvette to obtain a final volume of 0.95 mL. To this mixture, 0.03 mL of substrate (6 mM L-Leucine-p-nitroanilide) is added to the cuvette. The cuvette is mixed by inversion and incubated at 25° C. for 5 minutes. A volume of 0.02 mL of fecal suspension is added to the cuvette, mixed and the absorbance at 405 nm minus the absorbance at 490 nm measured over 5 minutes at 25° C. The rate of substrate cleavage in the presence of inhibitor (vi) is the slope of a plot relating the excess absorbance (i.e., the absorbance at 405 nm minus the absorbance at 490 nm) versus time. The same procedure is repeated without the putative inhibitor. The rate of substrate cleavage in the absence of inhibitor (v) is the slope of a plot relating the excess absorbance versus time. The rates, vi and v, and the inhibitor concentration [I] are used to calculate IC50 according to the equation expressed above.

[3] = molecular target: protease activity in feces; assay: General Fecal Enzymes Method (casein-resorufin cleavage); format: biochemical, infant; conditions: fecal suspension, casein-resorufin substrate, pH 7.8, 37° C. for 60 minutes
Text: as §2
The general method described above for obtaining a sample of feces suitable for use in Specific Fecal Enzyme Methods can be easily adapted by one skilled in the art to obtain appropriate samples of feces suitable for use in the General Fecal Enzymes Method listed below without undue experimentation.
To test the efficacy of protease inhibitors against the protease activity in feces, 50 μL of inhibitor and 50 μL of fecal suspension are added to a 1.5 mL microcentrifuge tube. The microcentrifuge tube is mixed by inversion and incubated at 25° C. for 45 minutes. Then, 50 μL of protease buffer (200 mM TRIS buffer containing 20 mM CaCl2, pH 7.8) is added to the microcentrifuge tube. The microcentrifuge tube is again mixed by inversion and incubated at 25° C. for 45 minutes. […] The microcentrifuge tube is again mixed by inversion and incubated at 37° C. for 60 minutes for the substrate cleavage reaction to take place. Then, 480 μL of trichloroacetic acid (5% w/v) is added to stop the reaction and precipitate any unreacted casein-resorufin. The microcentrifuge tube is mixed by inversion incubated at 37° C. for 15 minutes. […] Then, 400 μL of the supernatant is added to 600 μL of assay buffer (0.5 M TRIS, pH 8.8) in a cuvette. […] The same procedure is repeated without the putative inhibitor. […] Before the start of the reaction, A and Ai are nearly zero. […] The rates, vi and v, and the inhibitor concentration [I] are used to calculate IC50 according to the equation expressed above.

| IC50 [1] [µM] | IC50 [2] [µM] | IC50 (LAP activity in feces) [µM] | Compound | IC50 [3] [µM] |
| --- | --- | --- | --- | --- |
| 100 | 100 | > 3000 | O=C(O)CN(CCN(CC(=O)O)CC(=O)O)CC(=O)O [EDTA, ethylenediamine tetraacetic acid] | – |
| – | – | – | NCCc1ccc(S(=O)(=O)F)cc1 [4-(2-aminoethyl)-benzenesulfonylfluoride hydrochloride] | 217 |
